ChEMBL document CHEMBL1143098, “Design and synthesis of 6-amino-1,4-oxazepane-3,5-dione derivatives as novel broad spectrum anticonvulsants” (2008)

Experiments:
Mus musculus [1] = species on record: Mus musculus; test: Anticonvulsant activity in ICR mouse after 30 mins by MES test; assay type: functional; settings: 0.5 h
Mus musculus [2] = species on record: Mus musculus; test: Anticonvulsant activity against pentylenetetrazole-induced seizure in ICR mouse after 30 mins; assay type: functional; settings: 0.5 h

Structure (SMILES)	ED50 (Mus musculus [1])	ED50 (Mus musculus [2])
CCCC(CCC)C(=O)O [VALPROIC ACID]	271 mg/kg	149 mg/kg
O=C(NC1COCC(=O)N(C2CC2)C1=O)OCc1ccccc1 (stereo unspecified)	87.5 mg/kg	27 mg/kg
CCCCN1C(=O)COCC(NC(=O)OCc2ccccc2)C1=O (stereo unspecified)	93.8 mg/kg	34.8 mg/kg
O=C(NC1COCC(=O)N(Cc2ccccc2)C1=O)OCc1ccccc1 (stereo unspecified)	> 100 mg/kg	64.1 mg/kg
CC(C)CN1C(=O)COCC(NC(=O)OCc2ccccc2)C1=O (stereo unspecified)	> 100 mg/kg	> 100 mg/kg
C=CCN1C(=O)COCC(NC(=O)OCc2ccccc2)C1=O (stereo unspecified)	70.3 mg/kg	37.1 mg/kg
CN1C(=O)COCC(NC(=O)OCc2ccccc2)C1=O (stereo unspecified)	68.8 mg/kg	41 mg/kg
O=C1COCC(NC(=O)OCc2ccccc2)C(=O)N1 (stereo unspecified)	81.2 mg/kg	55.1 mg/kg
CCCCCCN1C(=O)COCC(NC(=O)OCc2ccccc2)C1=O (stereo unspecified)	87.5 mg/kg	35.6 mg/kg
O=C(NC1COCC(=O)N(Cc2ccc(F)cc2)C1=O)OCc1ccccc1 (stereo unspecified)	> 100 mg/kg	53.9 mg/kg
O=C(NC1COCC(=O)N(Cc2ccco2)C1=O)OCc1ccccc1 (stereo unspecified)	> 100 mg/kg	64.1 mg/kg
CCCN1C(=O)COCC(NC(=O)OCc2ccccc2)C1=O (stereo unspecified)	> 100 mg/kg	> 100 mg/kg
O=C(NC1COCC(=O)N(O)C1=O)OCc1ccccc1 (stereo unspecified)	93.8 mg/kg	96.9 mg/kg
